Test results from the supplement of paper PMC11208160.
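Further: IS621 bridge recombinase in Escherichia coli cells against a fixed T5 target plasmid.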

Assay: recombinant UMI read abundance after kanamycin selection (control-corrected) (log10(CPM+1)); higher = more efficient recombination; extreme values may be limits of the assay; sequences stand for … in AGTGCAGAGAAAATCGGCCAGTTTTCTCTGCCTGCAGTCCGCATGCCGTGGGACCCCTTGGGTTCTAACCTGTTGCCTAGATTTATGCAGCGGACTGCCTTTCTCCCAAAGTGATAAACCGG…AGGTTGGTTTCACT; site = the 11-nt donor
Outline: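 For the IS621 bridge recombinase, a pooled Escherichia coli screen tested donor and donor-binding-loop pairs. Cells received the pair library together with a target plasmid encoding a fixed target and T7-inducible recombinase, then went onto IPTG (0.07 mM) plus kanamycin or unselected plates in duplicate. After PCR across the donor–target junction and sequencing, recombinant UMI counts were normalized to CPM, averaged, and scaled by control-derived factors. Each value is given as log10(CPM+1).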
For “AGCTCAACATGGACCGGTTTTCCCGGTAATCCGTATTTGGG (site AGCTCACCTCC)”, the “recombinant UMI read abundance (log10)” value was 0.
In the case of “AGCTCAACATGGACCGGTTTTCCCGGTAATCCGTATTTGGG (site AGCTCAGCTCC)”, the “recombinant UMI read abundance (log10)” value is reported as 0.
With “AGCTCAACATGGACCGGTTTTCCCGGTAATCCGTATTTGGG (site AGCTCATCTCC)” the “recombinant UMI read abundance (log10)” value was 0.
With “AGCTCAGCATGGACCGGTTTTCCCGGTAATCCGTATTTGGC (site AGCTCAGCTAC)” the “recombinant UMI read abundance (log10)” value was 0.396.
With “AGCTCAGCATGGACCGGTTTTCCCGGTAATCCGTATTTGGC (site AGCTCAGCTCC)” the “recombinant UMI read abundance (log10)” value was 0.00906.
With “AGCTCAGCATGGACCGGTTTTCCCGGTAATCCGTATTTGGC (site AGCTCAGCTGC)” the “recombinant UMI read abundance (log10)” value was 2.19.
With “AGCTCAGCATGGACCGGTTTTCCCGGTAATCCGTATTTGGC (site AGCTCAGCTTC)” the “recombinant UMI read abundance (log10)” value was 0.398.
For “AGCTCAGCATGGACCGGTTTTCCCGGTAATCCGTATTTGGG (site AACTCAGCTCC)”, the “recombinant UMI read abundance (log10)” value was 0.
For “AGCTCAGCATGGACCGGTTTTCCCGGTAATCCGTATTTGGG (site ACCTCAGCTCC)”, the “recombinant UMI read abundance (log10)” value was 0.026.
In the case of “AGCTCAGCATGGACCGGTTTTCCCGGTAATCCGTATTTGGG (site AGATCAGCTCC)”, the “recombinant UMI read abundance (log10)” value is reported as 0.0131.
In the case of “AGCTCAGCATGGACCGGTTTTCCCGGTAATCCGTATTTGGG (site AGCACAGCTCC)”, the “recombinant UMI read abundance (log10)” value is reported as 0.212.
For “AGCTCAGCATGGACCGGTTTTCCCGGTAATCCGTATTTGGG (site AGCCCAGCTCC)”, the “recombinant UMI read abundance (log10)” value was 0.263.
With “AGCTCAGCATGGACCGGTTTTCCCGGTAATCCGTATTTGGG (site AGCGCAGCTCC)” the “recombinant UMI read abundance (log10)” value was 0.0219.
In the case of “AGCTCAGCATGGACCGGTTTTCCCGGTAATCCGTATTTGGG (site AGCTAAGCTCC)”, the “recombinant UMI read abundance (log10)” value is reported as 0.0351.
With “AGCTCAGCATGGACCGGTTTTCCCGGTAATCCGTATTTGGG (site AGCTCAACTCC)” the “recombinant UMI read abundance (log10)” value was 0.
For “AGCTCAGCATGGACCGGTTTTCCCGGTAATCCGTATTTGGG (site AGCTCACCTCC)”, the “recombinant UMI read abundance (log10)” value was 0.00337.
In the case of “AGCTCAGCATGGACCGGTTTTCCCGGTAATCCGTATTTGGG (site AGCTCAGCTAC)”, the “recombinant UMI read abundance (log10)” value is reported as 0.00707.
In the case of “AGCTCAGCATGGACCGGTTTTCCCGGTAATCCGTATTTGGG (site AGCTCAGCTCA)”, the “recombinant UMI read abundance (log10)” value is reported as 0.0167.
For “AGCTCAGCATGGACCGGTTTTCCCGGTAATCCGTATTTGGG (site AGCTCAGCTCC)”, the “recombinant UMI read abundance (log10)” value was 0.0108.
With “AGCTCAGCATGGACCGGTTTTCCCGGTAATCCGTATTTGGG (site AGCTCAGCTCG)” the “recombinant UMI read abundance (log10)” value was 0.0246.
In the case of “AGCTCAGCATGGACCGGTTTTCCCGGTAATCCGTATTTGGG (site AGCTCAGCTCT)”, the “recombinant UMI read abundance (log10)” value is reported as 0.337.
For “AGCTCAGCATGGACCGGTTTTCCCGGTAATCCGTATTTGGG (site AGCTCAGCTGC)”, the “recombinant UMI read abundance (log10)” value was 0.
In the case of “AGCTCAGCATGGACCGGTTTTCCCGGTAATCCGTATTTGGG (site AGCTCAGCTTC)”, the “recombinant UMI read abundance (log10)” value is reported as 0.0127.
With “AGCTCAGCATGGACCGGTTTTCCCGGTAATCCGTATTTGGG (site AGCTCATCTCC)” the “recombinant UMI read abundance (log10)” value was 0.0384.
For “AGCTCAGCATGGACCGGTTTTCCCGGTAATCCGTATTTGGG (site AGCTCCGCTCC)”, the “recombinant UMI read abundance (log10)” value was 0.0147.
With “AGCTCAGCATGGACCGGTTTTCCCGGTAATCCGTATTTGGG (site AGCTCGGCTCC)” the “recombinant UMI read abundance (log10)” value was 0.0329.
In the case of “AGCTCAGCATGGACCGGTTTTCCCGGTAATCCGTATTTGGG (site AGCTCTGCTCC)”, the “recombinant UMI read abundance (log10)” value is reported as 0.0255.
With “AGCTCAGCATGGACCGGTTTTCCCGGTAATCCGTATTTGGG (site AGCTGAGCTCC)” the “recombinant UMI read abundance (log10)” value was 0.
With “AGCTCAGCATGGACCGGTTTTCCCGGTAATCCGTATTTGGG (site AGCTTAGCTCC)” the “recombinant UMI read abundance (log10)” value was 0.0288.
For “AGCTCAGCATGGACCGGTTTTCCCGGTAATCCGTATTTGGG (site AGGTCAGCTCC)”, the “recombinant UMI read abundance (log10)” value was 0.00833.
For “AGCTCAGCATGGACCGGTTTTCCCGGTAATCCGTATTTGGG (site AGTTCAGCTCC)”, the “recombinant UMI read abundance (log10)” value was 0.0207.
For “AGCTCAGCATGGACCGGTTTTCCCGGTAATCCGTATTTGGG (site ATCTCAGCTCC)”, the “recombinant UMI read abundance (log10)” value was 0.019.
For “AGCTCAGCATGGACCGGTTTTCCCGGTAATCCGTATTTGGG (site CGCTCAGCTCC)”, the “recombinant UMI read abundance (log10)” value was 0.299.
In the case of “AGCTCAGCATGGACCGGTTTTCCCGGTAATCCGTATTTGGG (site GGCTCAGCTCC)”, the “recombinant UMI read abundance (log10)” value is reported as 0.0255.
With “AGCTCAGCATGGACCGGTTTTCCCGGTAATCCGTATTTGGG (site TGCTCAGCTCC)” the “recombinant UMI read abundance (log10)” value was 0.366.
With “AGCTCAGCATGGACCGGTTTTCCCGGTAATCCGTATTTGGT (site AGCTCAGCTAC)” the “recombinant UMI read abundance (log10)” value was 1.27.
In the case of “AGCTCAGCATGGACCGGTTTTCCCGGTAATCCGTATTTGGT (site AGCTCAGCTCC)”, the “recombinant UMI read abundance (log10)” value is reported as 0.0126.
In the case of “AGCTCAGCATGGACCGGTTTTCCCGGTAATCCGTATTTGGT (site AGCTCAGCTGC)”, the “recombinant UMI read abundance (log10)” value is reported as 0.
